Biological target: T1, P2X1 receptor (Homo sapiens, UniProt P51575)
T1 construct: made in house
T1 sequence (P51575 1-399): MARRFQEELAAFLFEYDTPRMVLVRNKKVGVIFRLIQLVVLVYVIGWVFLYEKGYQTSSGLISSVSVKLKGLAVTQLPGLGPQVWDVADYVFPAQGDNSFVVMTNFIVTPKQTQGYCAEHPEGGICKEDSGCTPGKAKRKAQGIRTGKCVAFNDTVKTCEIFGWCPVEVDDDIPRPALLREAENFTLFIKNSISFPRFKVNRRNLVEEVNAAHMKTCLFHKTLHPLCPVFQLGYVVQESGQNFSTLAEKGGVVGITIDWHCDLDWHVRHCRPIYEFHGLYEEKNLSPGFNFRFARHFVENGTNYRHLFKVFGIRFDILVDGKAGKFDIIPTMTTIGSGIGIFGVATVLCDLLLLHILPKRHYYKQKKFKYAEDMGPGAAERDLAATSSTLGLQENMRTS
Assay: Single molecule stochastic binding of ATP* to purified P2X1 reconstituted in lipid bilayers
Conditions: corrected for photophysical blinking and photochemical bleach; compared with bulk measurements
From the text: Plasmids: A FLAG-tagged human P2X1 subunit construct was generated by fusion PCR, and cloned together with an IRES-IFP1.4 fusion PCR product as a three-point ligation into the Mlul/Spel digested pLV-T backbone (see Shu, X.; Royant, A.; Lin, M. Z.; Aguilera, T. A.; Lev-Ram, V.; Steinbach, P. A.; Tsien, R. Y. Science 2009, 324, 804; and Marquis, J.; Kampfer, S. S.; Angehrn, L.; Schumperli, D. Gene therapy 2009, 16, 70.)
Protein Purification: HEK 293T cells stably expressing the FLAG-P2X1 receptor were grown as monolayers in T300 plates. At a density of 80%, cells were washed once with phosphate buffered saline (PBS (mM); 0.1 NaCl, 2.0 Na2HPO4, 0.54 KCl, 0.4 KH2PO4, pH 7.4), mechanically detached into PBS, collected by centrifugation at 500 g for 5 min, snap frozen in liquid N2 and stored at −70° C. until needed. After defrosting, cells were diluted with 2 mL Tris-EDTA (50 mM Tris-HCl, 0.5 mM EDTA, pH 7.5) containing Halt Protease Inhibitor (Pierce, Thermo Scientific, IL, USA) and homogenized with a 5 mL cell-douncer, followed by trituration through 21-gauge and 27-gauge needles. […]

## 2′/3′-O-(2-Aminoethyl-carbamoyl)-Adenosine-5′-triphosphate, labelled with ATTO-700 [ATP*]
  binding coefficients from single receptor binding data: statistically identical to overall bulk measurements
